We go through 14 compounds from ChEMBL document CHEMBL3739261, “Synthesis and antibacterial activity evaluation of C-5 side chain modified analogues of FYL-66, a potential agent against methicillin-resistant Staphylococcus aureus” (Medchemcomm, 2015).

≈ marks a conversion by molar mass, not a printed value. Some results are limits rather than exact numbers.

Data set [1] concerns Staphylococcus aureus. In words: Antibacterial activity against methicillin-resistant Staphylococcus aureus ATCC 33591 incubated for 18 hrs by broth microdilution method. The format is functional. Conditions: ATCC 33591, 18 h. Background: Dilution methods test growth across graded concentrations, often in twofold steps.
For data set [2], the system named is Staphylococcus aureus. Kind of data set: Antibacterial activity against methicillin-susceptible Staphylococcus aureus CMCC 2603 incubated for 18 hrs by broth microdilution method. The format is functional. Conditions: CMCC 2603, 18 h.
A short description of data set [3]: Cytotoxicity against HEK293A cells after 48 hrs by MTT assay. The format is cell-based. Particulars: Homo sapiens, HEK293-A. For orientation: Tetrazolium assays rely on reduction of a dye to a coloured formazan, in cell work by metabolically active cells.
The subject of the next data set is Pseudomonas aeruginosa. In words: Antibacterial activity against Pseudomonas aeruginosa ATCC 27853 incubated for 18 hrs by broth microdilution method. In kind it is functional. Conditions: ATCC 27853, 18 h.
A short description of data set [4]: Octanol/water partition coefficient, log P of the compound by HPLC assay. The format is physicochemical.
Data set [5] has as its system Staphylococcus aureus. Kind of data set: Antibacterial activity against methicillin-susceptible Staphylococcus aureus ATCC 6538 incubated for 18 hrs by broth microdilution method. In kind it is functional. Conditions: ATCC 6538, 18 h.
In another data set the test system is Escherichia coli. In words: Antibacterial activity against Escherichia coli ATCC 25922 incubated for 18 hrs by broth microdilution method. The format is functional. Conditions: ATCC 25922, 18 h.
Data set [6] relates to Staphylococcus aureus. Kind of data set: Antibacterial activity against methicillin-susceptible Staphylococcus aureus ATCC 29213 incubated for 18 hrs by broth microdilution method. In kind it is functional. Conditions: ATCC 29213, 18 h.
Data set [7] can be described thus: Solubility of compound in distilled water after 24 hrs by HPLC analysis. The format is physicochemical.
Data set [8] is described as follows: Cytotoxicity against human L02 cells after 48 hrs by MTT assay. The format is cell-based. Conditions: L02, 48 h.
The test system of data set [9] is Staphylococcus aureus. Kind of data set: Antibacterial activity against methicillin-resistant Staphylococcus aureus ATCC 43300 incubated for 18 hrs by broth microdilution method. In kind it is functional. Conditions: ATCC 43300, 18 h.
The subject of data set [10] is Staphylococcus aureus. In words: Antibacterial activity against methicillin-susceptible Staphylococcus aureus ATCC 25923 incubated for 18 hrs by broth microdilution method. Conditions: ATCC 25923, 18 h. In kind it is functional.

One may read the MIC as the smallest concentration in the dilution series that meets the test's criterion for growth inhibition. A higher MIC goes with a need for much substance. In general, IC50 refers to the point on the concentration scale where inhibition reaches its midpoint. Low values mean greater potency in that assay, high ones weaker potency in that assay. Broadly, the logP is the decadic logarithm of the partition coefficient of the neutral form, usually between octanol and water. Higher therefore signals higher lipophilicity. The solubility is the concentration that dissolves in the medium under given conditions. High values mean a readily soluble substance, low ones a poorly soluble substance. For the compound `O=C1O[C@@H](CN2CCCCC2)CN1c1ccc(-n2cc(-c3ccccn3)cn2)c(F)c1`, the MIC is 32 µg/mL (≈ 75.9 µM) in the data set on Staphylococcus aureus [1]; more than 32 µg/mL against Staphylococcus aureus [2]; more than 32 µg/mL in the data set on Pseudomonas aeruginosa; 32 µg/mL (≈ 75.9 µM) in the data set on Staphylococcus aureus [5]; more than 32 µg/mL in the data set with Escherichia coli; 32 µg/mL (≈ 75.9 µM) with Staphylococcus aureus [6]. Also, the MIC against Staphylococcus aureus [9] and with Staphylococcus aureus [10] was 32 µg/mL (≈ 75.9 µM) each time. Further, the half-maximal inhibitory concentration (IC50) in [3] and in [8] was more than 400 µg/mL throughout. This compound had a logP in data set [4] of 3.1. Also, the solubility at 24 h in data set [7] is 219 µM (≈ 92.4 µg/mL).
For `O=C1O[C@@H](CN2CCC(O)CC2)CN1c1ccc(-n2cc(-c3ccccn3)cn2)c(F)c1`, the MIC with Staphylococcus aureus [1], in the data set with Staphylococcus aureus [2], with Pseudomonas aeruginosa, with Staphylococcus aureus [5], in the data set on Escherichia coli and in the data set with Staphylococcus aureus [6] was more than 32 µg/mL throughout. For the same compound, the MIC in the data set with Staphylococcus aureus [9] and against Staphylococcus aureus [10] was more than 32 µg/mL throughout. Moreover, the IC50 in [3] and in data set [8] was more than 400 µg/mL throughout. The compound also came in with a logP in [4] of 1.63. In addition, the concentration in solution in [7] (solubility at 24 h) came to 45.9 µM (≈ 20.1 µg/mL).
As for `O=C1OC(Cn2ccnc2)CN1c1ccc(-n2cc(-c3ccccn3)cn2)c(F)c1` (single isomer, unassigned), the MIC in the data set with Staphylococcus aureus [1], in the data set with Staphylococcus aureus [2], against Pseudomonas aeruginosa, with Staphylococcus aureus [5], in the data set on Escherichia coli and in the data set on Staphylococcus aureus [6] was more than 32 µg/mL throughout. In addition, the MIC against Staphylococcus aureus [9] and in the data set with Staphylococcus aureus [10] was more than 32 µg/mL throughout. For the same compound, the values for the IC50 in [3] and in data set [8] were more than 400 µg/mL and 350 µg/mL (≈ 865 µM), respectively. In addition, the logP in [4] stood at 1.73. Moreover, the concentration in solution in data set [7] (solubility at 24 h) was 12.3 µM (≈ 4.97 µg/mL).
`COC(=O)NC[C@H]1CN(c2ccc(-n3cc(-c4ccccn4)cn3)c(F)c2)C(=O)O1`: the MIC is 4 µg/mL (≈ 9.72 µM) in the data set on Staphylococcus aureus [1]; 4 µg/mL (≈ 9.72 µM) against Staphylococcus aureus [2]; more than 32 µg/mL against Pseudomonas aeruginosa; 4 µg/mL (≈ 9.72 µM) against Staphylococcus aureus [5]; more than 32 µg/mL against Escherichia coli; 4 µg/mL (≈ 9.72 µM) in the data set with Staphylococcus aureus [6]. For the same compound, the MIC against Staphylococcus aureus [9] and with Staphylococcus aureus [10] was 4 µg/mL (≈ 9.72 µM) each time. In addition, the IC50 in data set [3] is 306 µg/mL (≈ 744 µM); in data set [8], 71 µg/mL (≈ 173 µM). In addition, the logP in data set [4] turned out to be 2.03. This compound also yielded a solubility at 24 h in [7] of 34.1 µM (≈ 14 µg/mL).
Consider `O=C1O[C@@H](CO)CN1c1ccc(-n2cc(-c3ccccn3)cn2)c(F)c1`, for which the IC50 in data set [3] is more than 400 µg/mL; in [8], 59 µg/mL (≈ 167 µM). In addition, the logP in [4] was determined as 1.67. The compound also came in with a solubility at 24 h in data set [7] of 56.4 µM (≈ 20 µg/mL).
As for `CC(=O)OC[C@H]1CN(c2ccc(-n3cc(-c4ccccn4)cn3)c(F)c2)C(=O)O1`, the MIC with Staphylococcus aureus [1], in the data set on Staphylococcus aureus [2], against Pseudomonas aeruginosa, in the data set with Staphylococcus aureus [5], with Escherichia coli and against Staphylococcus aureus [6] was more than 32 µg/mL throughout. For the same compound, the MIC in the data set with Staphylococcus aureus [9] and in the data set on Staphylococcus aureus [10] was more than 32 µg/mL in each case. Moreover, the IC50 in [3] and in [8] was more than 400 µg/mL in each case. In data set [4], this compound gave a logP of 2.09. In data set [7], this compound returned a solubility at 24 h of 373 µM (≈ 148 µg/mL).
With `O=C1O[C@@H](CN2CCOCC2)CN1c1ccc(-n2cc(-c3ccccn3)cn2)c(F)c1`, the MIC in the data set on Staphylococcus aureus [1], with Staphylococcus aureus [2], in the data set on Pseudomonas aeruginosa, in the data set on Staphylococcus aureus [5], against Escherichia coli and against Staphylococcus aureus [6] was more than 32 µg/mL each time. The MIC with Staphylococcus aureus [9] and against Staphylococcus aureus [10] was more than 32 µg/mL each time. For the same compound, the IC50 in data set [3] and in data set [8] was more than 400 µg/mL in each case. The logP in data set [4] worked out at 2. The solubility at 24 h in data set [7] amounted to 109 µM (≈ 46.2 µg/mL).
Turning to `O=C1CSC(=O)N1C[C@H]1CN(c2ccc(-n3cc(-c4ccccn4)cn3)c(F)c2)C(=O)O1`, the MIC with Staphylococcus aureus [1], with Staphylococcus aureus [2], in the data set on Pseudomonas aeruginosa, with Staphylococcus aureus [5], against Escherichia coli and in the data set on Staphylococcus aureus [6] was more than 32 µg/mL each time. Further, the MIC against Staphylococcus aureus [9] and against Staphylococcus aureus [10] was more than 32 µg/mL each time. The results for the IC50 in [3] and in data set [8] were 283 µg/mL (≈ 624 µM) and more than 400 µg/mL, respectively. The same compound registered a logP in [4] of 2.18. The solubility at 24 h in data set [7] was 26.9 µM (≈ 12.2 µg/mL).
With `CS(=O)(=O)NC[C@H]1CN(c2ccc(-n3cc(-c4ccccn4)cn3)c(F)c2)C(=O)O1`, the MIC with Staphylococcus aureus [1] was more than 64 µg/mL; in the data set on Staphylococcus aureus [2], more than 64 µg/mL; in the data set on Pseudomonas aeruginosa, more than 32 µg/mL; against Staphylococcus aureus [5] it was more than 64 µg/mL; with Escherichia coli it was more than 32 µg/mL; against Staphylococcus aureus [6] it was more than 64 µg/mL. Moreover, the MIC in the data set with Staphylococcus aureus [9] and against Staphylococcus aureus [10] was more than 64 µg/mL each time. Also, the IC50 in data set [3] is 314 µg/mL (≈ 728 µM); in [8], more than 400 µg/mL. In addition, the logP in [4] is 1.38. This compound also returned a solubility at 24 h in data set [7] of 2.3 µM (≈ 0.992 µg/mL).
Take `CN1CCN(C[C@H]2CN(c3ccc(-n4cc(-c5ccccn5)cn4)c(F)c3)C(=O)O2)CC1`: the MIC in the data set on Staphylococcus aureus [1], against Staphylococcus aureus [2], in the data set on Pseudomonas aeruginosa, against Staphylococcus aureus [5], in the data set with Escherichia coli and against Staphylococcus aureus [6] was more than 32 µg/mL each time. Moreover, the MIC against Staphylococcus aureus [9] and against Staphylococcus aureus [10] was more than 32 µg/mL each time. For the same compound, the IC50 in data set [3] and in data set [8] was 70 µg/mL (≈ 160 µM) each time. Besides, the logP in data set [4] was found to be 2.2. This compound also yielded a solubility at 24 h in data set [7] of 1690 µM (≈ 738 µg/mL).
Turning to `O=C1O[C@@H](CNC(=O)C(F)(F)F)CN1c1ccc(-n2cc(-c3ccccn3)cn2)c(F)c1`, the MIC is more than 64 µg/mL with Staphylococcus aureus [1]; more than 64 µg/mL with Staphylococcus aureus [2]; more than 32 µg/mL in the data set on Pseudomonas aeruginosa; more than 64 µg/mL in the data set on Staphylococcus aureus [5]; more than 32 µg/mL against Escherichia coli; more than 64 µg/mL in the data set on Staphylococcus aureus [6]. Further, the MIC against Staphylococcus aureus [9] and with Staphylococcus aureus [10] was more than 64 µg/mL throughout. For the same compound, the IC50 in data set [3] and in data set [8] was more than 400 µg/mL in each case. This compound came in with a logP in [4] not below 1.78. This compound also had a solubility at 24 h in [7] of 114 µM (≈ 51 µg/mL).
For `CNC(=O)[C@H]1CN(c2ccc(-n3cc(-c4ccccn4)cn3)c(F)c2)C(=O)O1`, the MIC was 16 µg/mL (≈ 42 µM) with Staphylococcus aureus [1]; 8 µg/mL (≈ 21 µM) with Staphylococcus aureus [2]; more than 32 µg/mL in the data set with Pseudomonas aeruginosa; 8 µg/mL (≈ 21 µM) against Staphylococcus aureus [5]; more than 32 µg/mL with Escherichia coli; 8 µg/mL (≈ 21 µM) in the data set with Staphylococcus aureus [6]. Further, the MIC against Staphylococcus aureus [9] worked out at 16 µg/mL (≈ 42 µM); in the data set on Staphylococcus aureus [10], 8 µg/mL (≈ 21 µM). In addition, the IC50 in data set [3] was 342 µg/mL (≈ 897 µM); in data set [8], 217 µg/mL (≈ 569 µM). This compound showed a logP in data set [4] of 1.39. The compound also returned a solubility at 24 h in data set [7] of 26.2 µM (≈ 9.99 µg/mL).
With `O=C1O[C@@H](CN2CCC(c3ccc(F)cc3)CC2)CN1c1ccc(-n2cc(-c3ccccn3)cn2)c(F)c1`, the minimal inhibitory concentration (MIC) in the data set on Staphylococcus aureus [1], with Staphylococcus aureus [2], with Pseudomonas aeruginosa, against Staphylococcus aureus [5], against Escherichia coli and with Staphylococcus aureus [6] was more than 32 µg/mL throughout. The MIC against Staphylococcus aureus [9] and against Staphylococcus aureus [10] was more than 32 µg/mL in each case. The IC50 in data set [3] and in data set [8] was more than 400 µg/mL each time. The logP in [4] is 5.78. The compound further yielded a solubility at 24 h in data set [7] not above 19.4 µM.
For `CN(CCC#N)C[C@H]1CN(c2ccc(-n3cc(-c4ccccn4)cn3)c(F)c2)C(=O)O1`, the MIC against Staphylococcus aureus [1], in the data set with Staphylococcus aureus [2], in the data set with Pseudomonas aeruginosa, against Staphylococcus aureus [5], against Escherichia coli and in the data set on Staphylococcus aureus [6] was more than 32 µg/mL in each case. For the same compound, the MIC in the data set on Staphylococcus aureus [9] and against Staphylococcus aureus [10] was more than 32 µg/mL throughout. The IC50 in [3] and in [8] was more than 400 µg/mL in each case. Moreover, in [4], the logP was found to be 1.9. This compound also returned a solubility at 24 h in data set [7] of 64.5 µM (≈ 27.1 µg/mL).
